Read-outs that look alike come from different tables or passages of the source.
Experiments:
native CB1 receptors = native CB1 receptors (Rattus norvegicus, UniProt P20272); test: CB1 receptor rat binding assay ([3H]SR141716A, rat brain membranes)
CB1 (mutant) = CB1 (mutant) (Homo sapiens, UniProt P21554); test: R-SAT functional receptor assay, CB1 (mutant, truncated after amino acid 417); type: cell-based; conditions: R-SAT CB1; for IC50: receptor form (mutant or wild-type) not stated; for Emax: receptor form not stated, relative to SR141716 (100%), read-out: % Inhibition
Chain of CB1 (mutant) (P21554 1-417, change not shown): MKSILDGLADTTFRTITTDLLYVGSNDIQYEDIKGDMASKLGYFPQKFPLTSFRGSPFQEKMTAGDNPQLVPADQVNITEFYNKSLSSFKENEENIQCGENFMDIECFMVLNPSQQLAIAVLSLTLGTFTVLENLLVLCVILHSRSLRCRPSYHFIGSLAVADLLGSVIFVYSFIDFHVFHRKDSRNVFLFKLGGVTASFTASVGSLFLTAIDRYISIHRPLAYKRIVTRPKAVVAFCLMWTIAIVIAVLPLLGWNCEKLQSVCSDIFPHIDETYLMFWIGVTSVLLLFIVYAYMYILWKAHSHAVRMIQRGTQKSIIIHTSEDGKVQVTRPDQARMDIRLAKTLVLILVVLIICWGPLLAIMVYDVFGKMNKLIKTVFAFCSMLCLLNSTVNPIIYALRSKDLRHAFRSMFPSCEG

[1] = rat brain membranes, [3H]SR141716A
[2] = rat brain membranes, [3H]SR141716A, read-out: Binding rat pKi (converted)
[3] = Appendix A, read-out: pIC50 (converted)

Chain of native CB1 receptors (P20272 whole entry, the tested form may be a part): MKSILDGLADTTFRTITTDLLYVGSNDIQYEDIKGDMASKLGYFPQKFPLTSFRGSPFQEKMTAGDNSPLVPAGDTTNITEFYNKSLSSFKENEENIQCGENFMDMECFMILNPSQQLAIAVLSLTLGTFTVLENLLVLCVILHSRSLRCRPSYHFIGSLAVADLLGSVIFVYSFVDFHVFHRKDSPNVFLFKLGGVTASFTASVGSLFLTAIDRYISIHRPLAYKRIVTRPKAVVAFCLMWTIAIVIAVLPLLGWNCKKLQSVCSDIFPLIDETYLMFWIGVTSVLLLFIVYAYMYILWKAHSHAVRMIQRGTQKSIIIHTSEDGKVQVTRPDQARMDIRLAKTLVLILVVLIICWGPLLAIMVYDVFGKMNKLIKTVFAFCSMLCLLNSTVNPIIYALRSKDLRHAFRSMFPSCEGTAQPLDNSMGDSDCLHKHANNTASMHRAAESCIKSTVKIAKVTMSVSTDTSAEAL

| Structure (SMILES) | Ki (native CB1 receptors; [2]) [nM] | IC50 (CB1 (mutant); [3]) [nM] | Emax (CB1 (mutant); Appendix A) [%] | also measured |
| --- | --- | --- | --- | --- |
| O=C(NC1CCC(F)(F)CC1)c1ccc2c(c1)N=C(c1ccc(Cl)cc1F)c1ccccc1S2 | 1 | – | – | Binding rat Inh % (native CB1 receptors; [1]): 78% |
| O=C(NC1CCC(F)(F)CC1)c1ccc2c(c1)N=C(c1ccc(Cl)cc1)c1ccccc1S2 | 2.51 | – | – | Binding rat Inh % (native CB1 receptors; [1]): 90% |
| CCCCNC(=O)c1ccc2c(c1)N=C(c1ccc(F)c(F)c1)c1ccccc1S2 | 2.51 | – | – | Binding rat Inh % (native CB1 receptors; [1]): 102% |
| CC(NC(=O)c1ccc2c(c1)N=C(N1CCCCC1)c1ccccc1S2)c1ccccc1 (stereo not drawn) | 20 | – | – | – |
| O=C(NC1CCC(F)(F)CC1)c1ccc2c(c1)N=C(c1ccsc1)c1ccccc1S2 | 3.16 | – | – | Binding rat Inh % (native CB1 receptors; [1]): 92% |
| CCCC1=Nc2cc(C(=O)NC(C)C34C[C@H]5C[C@@H](C3)C[C@@H](C4)C5)ccc2Sc2ccccc21 (stereo partly drawn) | 25.1 | – | – | – |
| O=C(NN1CCCCC1)c1ccc2c(c1)N=C(c1cccc(Cl)c1)c1ccccc1O2 | 39.8 | – | – | – |
| O=C(NCc1cccc(Cl)c1)c1ccc2c(c1)N=C(C1CCCCC1)c1cc(F)ccc1S2 | 10 | – | – | – |
| O=C(NN1CCCCC1)c1ccc2c(c1)N=C(C1CCCCC1)c1ccccc1O2 | – | – | – | Ki (native CB1 receptors): 63.1 nM |
| O=C(NNC(=O)c1ccc2c(c1)N=C(c1cccc(Br)c1)c1ccccc1S2)c1ccccc1 | 100 | – | – | Binding rat Inh % (native CB1 receptors; [1]): 73% |
| CCCCNC(=O)c1ccc2c(c1)N=C(c1ccccc1F)c1ccccc1S2 [drawing 1129] | – | 39.8 | 96 | – |
| C[C@@H]1CCC[C@H](C)N1NC(=O)c1ccc2c(c1)N=C(c1ccc(Cl)cc1)c1ccccc1S2 [drawing 1133] | – | 39.8 | 96 | – |
| O=C(NCCc1ccncc1)c1ccc2c(c1)N=C(c1ccc(Cl)cc1)c1ccccc1S2 [drawing 1135] | – | 39.8 | 116 | – |
| O=C(NC1CCCC1)c1ccc2c(c1)N=C(c1ccc(Cl)s1)c1ccccc1S2 [drawing 1139] | – | 39.8 | 86 | – |
| Cc1ccc(CNC(=O)c2ccc3c(c2)N=C(c2ccc(Cl)cc2)c2ccccc2S3)o1 [drawing 1141] | – | – | 93 | IC50 (CB1 (mutant); pIC50, Appendix A): 39.8 nM |
| CCOCCNC(=O)c1ccc2c(c1)N=C(c1ccc(Br)cc1)c1ccccc1S2 [drawing 1143] | – | 39.8 | 85 | – |
| O=C(NCCc1ccccn1)c1ccc2c(c1)N=C(c1ccc(F)cc1)c1ccccc1S2 [drawing 1145] | – | 39.8 | 101 | – |
| CC(NC(=O)c1ccc2c(c1)N=C(c1ccccc1)c1ccccc1S2)c1ccccc1 (stereo not drawn) [drawing 1147] | – | 39.8 | 85 | – |
| C[C@@H]1CCC[C@H](C)N1NC(=O)c1ccc2c(c1)N=C(c1ccccc1F)c1ccccc1S2 [drawing 1149] | – | 39.8 | 103 | – |
| COc1ccc(C2=Nc3cc(C(=O)NC4CCCCC4)ccc3Sc3ccccc32)cc1 [drawing 1153] | – | 39.8 | 115 | – |
| CC(C)NC(=O)c1ccc2c(c1)N=C(c1cccc(F)c1)c1ccccc1S2 [drawing 1155] | – | 39.8 | 104 | – |
| O=C(NCc1ccccn1)c1ccc2c(c1)N=C(c1ccc(Cl)cc1)c1ccccc1S2 [drawing 1157] | – | 39.8 | 125 | – |
| O=C(c1ccc2c(c1)N=C(c1ccc(F)cc1)c1ccccc1S2)N1CCCCC1 [drawing 1163] | – | – | 90 | IC50 (CB1 (mutant); pIC50, Appendix A): 39.8 nM |
| CCCCNC(=O)c1ccc2c(c1)N=C(c1ccc(Cl)cc1Cl)c1ccccc1S2 [drawing 1165] | – | 39.8 | 98 | – |
| O=C(NCc1ccc(Cl)cc1Cl)c1ccc2c(c1)N=C(c1ccccc1)c1ccccc1S2 [drawing 1167] | – | 39.8 | 91 | – |
| CC(CNC(=O)c1ccc2c(c1)N=C(N1CCCCC1)c1cc(F)ccc1S2)c1ccccc1 (stereo not drawn) [drawing 1171] | – | 39.8 | 102 | – |
| CC(C)CNC(=O)c1ccc2c(c1)N=C(c1ccc(Cl)cn1)c1ccc(Cl)cc1S2 [drawing 1172] | – | – | 27 | – |
| CC(CNC(=O)c1ccc2c(c1)N=C(c1ccc(Cl)cc1)c1cc(F)ccc1S2)c1ccccc1 (stereo not drawn) [drawing 1173] | – | 39.8 | 110 | – |
| N#Cc1ccc(C2=Nc3cc(C(=O)NNCc4ccccc4)ccc3Sc3ccccc32)cc1 [drawing 1174] | – | – | 58 | – |

From patent publication US20080090805A1, “CB-1 MODULATING COMPOUNDS AND THEIR USE” (ACADIA PHARMACEUTICALS INC., priority 2005, published 2008)
